From patent US20180117000A1, “ENERGY METABOLIC ACTIVATING AGENT FOR MUSCLE CELLS” (ORYZA OIL & FAT CHEMICAL CO., LTD., priority 2015, published 2018)
“Also recorded” adds a separate entry of the source.

Experiments:
PGC-1α = experiment: Evaluation of the PGC-1α-expression promoting effect: PGC-1α mRNA by RT-PCR in C2C12; assay type: cell-based, Mouse; details: Compounds at 1 μM or 10 μM, C2C12 myoblast cells, cultured one week, GAPDH endogenous control, vs DMSO control, FIG. 3
Procedure: Mouse-muscle myoblast-cell lines C2C12 (cultured in DMEM FCS10%) were seeded in 24 well plates for determining the mRNA expression (1×10^4 cells/ml) and then were cultured for 24 hours. After 24 hours, the black-ginger extract (10 μg/mL) or the separated fractions (Compounds 1-8) were added to the culture media (DMEM FCS 1%) for differentiation induction until the concentration became 1 μM or 10 μM (i.e. until the concentration of the sample dissolved in each DMSO (dimethyl sulfoxide) became 0.1% (v/v) regarding the culture media). Then, the black-ginger extract and the separated fractions were cultured for one week. For control, the DMSO was added to the culture media in concentration of 0.1% (v/v). After being cultured for one week, the cells were collected, and the RNA was extracted. Regarding the collected RNA, by using RT-PCR (reverse-transcription polymerase-chain reaction), the expressed mRNA amount of the PGC-1α was identified. At that time, as an endogenous-control, GAPDH (Glyceraldehyde 3-phosphate dehydrogenase) was used.

[1] = test system: sugar transporter (GLUT4); experiment: Evaluation of sugar-transporter (GLUT4) gene-expression promotion: GLUT4 mRNA by RT-PCR in C2C12; assay type: cell-based, Mouse; details: Compounds at 1 μM or 10 μM, C2C12 myoblast cells, cultured one week, GAPDH endogenous control, vs DMSO control, FIG. 2
Procedure: Mouse-muscle myoblast-cell lines C2C12 (cultured in DMEM FCS10%) were seeded in 24 well plates for determining the mRNA expression (1×10^4 cells/ml) and then were cultured for 24 hours. […] Then, the black-ginger extract and the separated fractions were cultured for one week. For control, the DMSO was added to the culture media in concentration of 0.1% (v/v). After being cultured for one week, the cells were collected, and the RNA was extracted. Regarding the collected RNA, by using RT-PCR (reverse-transcription polymerase chain-reaction), the expressed mRNA amount of the sugar transporter (GLUT4) was identified. At that time, as an endogenous-control, GAPDH (Glyceraldehyde 3-phosphate dehydrogenase) was used.

SMILES	mRNA expression of the PGC-1α (PGC-1α)	mRNA expression of the sugar transporter (GLUT4) [1]
COc1cc(O)c2c(=O)cc(-c3ccccc3)oc2c1 [Compound 2, Techtochrysin]	Significant increases; also recorded: stronger activity	Significant expressed-promotion increases
COc1cc(OC)c2c(=O)cc(-c3ccccc3)oc2c1 [Compound 8, 5,7-dimethoxyflavone]	Significant increases; also recorded: stronger activity	Significant expressed-promotion increases
COc1ccc(-c2oc3cc(OC)cc(O)c3c(=O)c2OC)cc1 [Compound 3, 3,7,4′-Trimethylkaempferol]	–	Significant expressed-promotion increases
COc1cc(O)c2c(=O)c(OC)c(-c3ccc(OC)c(OC)c3)oc2c1 [Compound 4, retusine]	lower activity	–
